Results published in patent US20150368248A1, “2-SUBSTITUTED-6-BIARYLMETHYLAMINO-9-CYCLOPENTYL-9H-PURINE DERIVATIVES, USE THEREOF AS MEDICAMENTS, AND PHARMACEUTICAL COMPOSITIONS” (UNIVERZITA PALACKEHO V OLOMOUCI, priority 2013, published 2015).

Experiments:
[1] = tested on: RNA polymerase II phosphorylation at serines 2 and 5; assay: Immunoblot of RNA polymerase II phosphorylation (CDK7/CDK9 substrate); format: cell-based, human
Procedure: We monitored levels of phosphorylation of RNA polymerase II, which is a substrate of CDK7 and CDK9, in cells treated with compound BP14 (FIG. 3). Immunoblotting analysis was performed as described in Example 33 with using appropriate antibodies for anti-phospho RNA polymerase II (S5) (Bethyl Laboratories, USA), anti-phospho RNA polymerase II (S2) (Bethyl Laboratories, USA), anti-RNA polymerase II (clone ARNA-3, Millipore) and β-actin (clone C4, Santa Cruz Biotechnology, USA).
Immunoblotting was performed as described previously (36). The primary antibodies were used at the dilutions: anti-phospho-Ser5 RNA Pol II (CDK7; Bethyl Laboratories, Montgomery, USA), 1:1,000; anti-phospho-Ser2 RNA Pol II (CDK9; Bethyl Laboratories, Montgomery, USA), 1:1,000; anti-RNA Pol II (Santa Cruz Biotechnology, Santa Cruz, USA), 1:1,000; anti-PARP (Cell Signaling Technology, Beverly, USA), 1:1,000; anti-β-actin (Sigma, St. Louis, USA), 1:2.500. Horseradish peroxidase-conjugated secondary antibodies (Calbiochem, LaJolla, USA) were used at dilutions of 1:10,000.

Hep3B [2] = assay: MTT cell viability assay (Example 40); format: cell-based; conditions: Homo sapiens, 72 hours
Procedure: (§1) The human hepatoma cell lines and HepG2, PLC/PRF/5 (PLC), Hep3B and 3sp (formerly described as HCC-1.1) were cultivated in RPMI 1640 and 10% fetal calf serum (FCS) as described (31, 32). All cells were kept at 37° C. and 5% CO2 and were routinely screened for the absence of mycoplasma.
(§2) Cell viability was determined using the 3-(4,5 dimethylthiazol-2-yl)-2,5-diphenyltetrazolium bromide (MTT) assay. Briefly, cells were seeded in triplicates at a density of 6×10^3 cells per well. After 24 hours, cells were incubated with drug-containing medium for 72 hours. Cells were incubated with MTT solution (5 mg/ml; Sigma, St. Louis, USA) and medium was replaced with DMSO after five hours. The absorbance was measured at 620 nm by employing a microplate reader (Asys HiTech, Salzburg, Austria). MTT assays were repeated 3 times for each drug application and untreated cells were used as reference. IC50 values were obtained by log-linear interpolation of data points and are depicted by dose-response curves using the software GraphPad Prism® 5.01.

PLC/PRF/5 (PLC) = assay: MTT cell viability assay (Example 40); format: cell-based; conditions: Homo sapiens, 72 hours
Procedure: as §1, §2

HepG2 [3] = assay: MTT cell viability assay (Example 40); format: cell-based; conditions: Homo sapiens, 72 hours
Procedure: as §1, §2

[4] = tested on: 3sp (formerly described as HCC-1.1); assay: MTT cell viability assay (Example 40); format: cell-based; conditions: Homo sapiens, 72 hours
Procedure: as §1, §2

[5] = tested on: primary human hepatocytes (PHHs); assay: MTT cell viability assay (Example 40); format: cell-based; conditions: Hepatocyte
Procedure: Non-neoplastic tissue samples from liver resections were obtained from patients undergoing partial hepatectomy for metastatic liver tumors of colorectal cancer. Experimental procedures were performed according to the guidelines of the charitable state controlled foundation HTCR (Human Tissue and Cell Research, Regensburg, Germany), with the informed patient's consent approved by the local ethical committee of the University of Regensburg. PHHs were isolated using a modified two-step EGTA/collagenase perfusion procedure as described previously (33). Viability of isolated PHHs was determined by trypan blue exclusion and cells with a viability of more than 85% were used for further work. Cells were plated on collagen-coated plates (BD Biosciences, San Jose, USA) at a density of 1.2×10^5 cells/cm^2. The medium consisted of DMEM with 10% FCS, 2 mM L-glutamine, […], 100 U/ml penicillin and supplements as follows: 125 mU/ml insulin, 7.3 ng/ml glucagon and 0.8 μg/ml hydrocortisone. Cells were incubated at 37° C. in a humidified incubator with 5% CO2 and media were changed daily.
Cell viability was determined using the 3-(4,5 dimethylthiazol-2-yl)-2,5-diphenyltetrazolium bromide (MTT) assay. Briefly, cells were seeded in triplicates at a density of 6×10^3 cells per well. […] The absorbance was measured at 620 nm by employing a microplate reader (Asys HiTech, Salzburg, Austria). […]

[6] = tested on: HepG2, PLC and Hep3B cells; assay: Analysis of proliferation (cell counter); format: cell-based, human; conditions: 0.2 μM
Procedure: 6×10^4 cells were seeded on 12-well plates and incubated with inhibitors at different concentrations for 3 days. Cell numbers were determined at various time points after trypsinization using a cell counter (CASY, Scharfe Systems, Reutlingen, Germany). Three independent experiments were performed in triplicates.

Hep3B [7] = assay: Determination of long-term chemosensitivity (MTT); format: cell-based; conditions: Homo sapiens
Procedure: as §2
(§3) The selection of chemoresistant cells was monitored every 6 weeks by the determination of IC50 values using the MTT assay. HCC cells showing higher IC50 values after treatment with inhibitors as compared to untreated cells are considered as chemoresistant.

HepG2 [8] = assay: Determination of long-term chemosensitivity (MTT); format: cell-based; conditions: Homo sapiens, read-out: IC50 for BP14, HepG2
Procedure: as §2, §3

For `NC1CCC(Nc2nc(NCc3ccc(-c4ccco4)nc3)c3ncn(C4CCCC4)c3n2)CC1` (stereo not drawn) [BP14, N^2-(4-amino-cyclohexyl)-9-cyclopentyl-N^6-(6-furan-2-yl-pyridin-3-ylmethyl)-9H-purine-2,6-diamine], the “RNA polymerase II phosphorylation on serine 5 (CDK7) and serine 2 (CDK9)” value ([1]; HepG2 and PLC cells, below 1 μM, 24 hours) was “strong reduction of RNA polymerase II phosphorylation”, the “phosphorylation at serines 2 and 5 of RNA polymerase II” value ([1]; mainly AKH3sp and Hep3B cell lines, 24 h) was “rapid decrease in phosphorylation at serines 2 and 5 of RNA polymerase II” and the IC50 (Hep3B [2]) was 80 nM. For the same compound, the IC50 (PLC/PRF/5 (PLC)) was 20 nM, the IC50 (HepG2 [3]) was 120 nM and the IC50 [4] was 480 nM. For the same compound, the IC50 [5] was 20100 nM, the proliferation kinetics [6] was “cytostatic effect” and the IC50 (Hep3B [7]; control, read-out: IC50 for BP14, Hep3B) was 530 nM. For the same compound, the IC50 (Hep3B [7]; long-term exposure at 1/16 IC50, read-out: IC50 for BP14, Hep3B) was 420 nM, the IC50 (Hep3B [7]; long-term exposure at ¼ IC50, read-out: IC50 for BP14, Hep3B) was 450 nM and the IC50 (Hep3B [7]; long-term exposure at ½ IC50, read-out: IC50 for BP14, Hep3B) was 800 nM. The IC50 (Hep3B [7]; long-term exposure at ⅛ IC50, read-out: IC50 for BP14, Hep3B) was 380 nM, the IC50 (HepG2 [8]; HepG2, control) was 320 nM and the IC50 (HepG2 [8]; HepG2, long-term exposure at 1/16 IC50) was 270 nM. For the same compound, the IC50 (HepG2 [8]; HepG2, long-term exposure at ¼ IC50) was 450 nM, the IC50 (HepG2 [8]; HepG2, long-term exposure at ½ IC50) was 590 nM and the IC50 (HepG2 [8]; HepG2, long-term exposure at ⅛ IC50) was 390 nM.
